Test results taken from patent US20200368314A1, “PEPTIDES FOR TREATMENT AND PREVENTION OF NONALCOHOLIC FATTY LIVER DISEASE” (UNIVERSITE DE STRASBOURG, priority 2017, published 2020).
“Also recorded” adds a separate entry of the source.

What was measured:
[1] = tested on: DIO male mice; test: Oral glucose tolerance test, PATAD, metformin or both; details: PATAD injection, metformin daily oral gavage
[2] = tested on: AST (Aspartate Aminotransferase); test: Plasma AST ELISA; assay type: in vivo, mouse; details: 3 months after a single subcutaneous injection, n=4
Experimental: (§1) Mean values of both AST and ALT measured by ELISA approach in plasma of mice with the indicated treatment. n=4 samples per group.
(§2) Mice presented in FIG. 1 were euthanized and their plasma and organs were sampled for analysis. […] Cryosection of the livers were then stained with Adipored and DAPI to detect the level of lipid droplets. […] Hepatic function is assessed by two liver related strong biomarkers namely (AST (Aspartate Aminotransferase) and ALT (Alanine Aminotransferase)), whose levels increase proportionately with liver damage.
(§3) Plasma samples from the indicated mice were used to determine plasma content of either AST (aspartate aminotransferase) or […] (alanine aminotransferase) both robust indicators of liver damage were measured using commercially purchased ELISA kits. These parameters were determined according to manufacturer's procedure.
SEB214Mu (96 Tests): Enzyme-linked Immunosorbent Assay Kit For Aspartate Aminotransferase (AST), Cloud Clone Corp

[3] = tested on: FATP2 (Fatty acid transport protein 2); test: q-PCR expression of fatty acid transporters in adipose tissue; assay type: in vivo, mouse; details: high fat/high glucose diet male mice; 11 days post single injection; GAPDH reference gene
From the text: n=4 animals per group, GAPDH was used as reference gene. There are 6 isoforms of FATP (FATP1-6 also known as SLC27A1-SLC27A6).
As PATAD subcutaneous injection relates to restoration of glucose absorption in the adipose tissue, the inventors measured the expression levels of all 6 isoforms for the FATPs (1-6) (Fatty acid transport protein 1-6) and the 4 isoforms of the FFAR (Free Fatty Acid Receptor) to assess any effect on these genes.
All peptides were initially dissolved in DMSO and then diluted in sterile saline solution at a concentration of 10 ng/μL. 2.5 μL of each peptide (stapled or scrambled) were mixed and then injected directly in the subcutaneaous adipose tissue in each mouse. […]
Total RNA was prepared from the different tissues and cells using a RiboPure™ kit (Catalog #: AM1924; Ambion) followed by a DNAse treatment with the TURBO DNA-Free™ (Catalog #: AM 1907; Ambion). RNA integrity was assessed by gel electrophoresis and RNA concentration by Eppendorf Biophotometer Plus with the Hellma® Tray Cell (Catalog #: 105.810-uvs; Hellma). […] Real-time quantitative polymerase chain reaction amplification was performed in a BioRad CFX96™ Real-Time System using the iQ™ SYBR® Green Supermix (Catalog #: 170-8886; BioRAd) and primer sets optimized for tested targets for SYBR Green-based real-time PCR for the real-time PCR. […]

[4] = tested on: albumin; test: Plasma free albumin determination; assay type: in vivo, mouse; details: 3 months after PATAD injection, N=5
Experimental: Lipids are transported bound to albumin and therefore plasma content of free albumin was measured as a readout of the effect of PATAD stapled peptide sequence A on circulating lipid profile 3 months after PATAD injection. N=5 mice per group.
A decreased circulating free albumin concentration has been observed when the mice were treated with PATAD stapled peptide sequence A indicating an increase in the levels of circulating lipids (FIG. 6).
(§4) For GLP-1 measurement, a commercially available kit was used. RayBio Human/Mouse/Rat GLP-1 Enzyme Immunoassay Kit, EIA-GLP1, RayBiotech were used with the indicated procedures from the manufacturer. For the plasma albumin level determination, a commercially available kit was used.

[5] = tested on: GLP-1; test: Circulating GLP-1 enzyme immunoassay; assay type: in vivo, mouse; details: plasma; 11 days post single injection
Experimental: FIG. 4: PATAD stapled peptide sequence A reduces FATP2 expression level in the adipose tissue and increases GLP-1 circulating levels • (A)4 month-old male mice fed with a high fat/high glucose diet were used in this set of experiment.
Mice were injected with a single dose of either scramble peptide or PATAD stapled peptide sequence A. 11 days post injection, the mice were euthanized, and plasma was obtained and used for determination of circulating GLP1 from mice with the indicated treatment.
as §4

[6] = tested on: ALT (Alanine Aminotransferase); test: Plasma ALT ELISA; assay type: in vivo, mouse; details: 3 months after a single subcutaneous injection, n=4
Experimental: as §1, §2, §3
SEA207Mu (96 Tests): Enzyme-linked Immunosorbent Assay Kit For Alanine Aminotransferase (ALT), Cloud Clone Corp

Compound: CN(C)C(=N)N=C(N)N [metformin]
- onset of the effect on the GTT [1]: delayed by one week

Compound: VE CTM-[2-(4-pentenyl) alanine]-EK RVL A-[2-(4-pentenyl)alanine]-L DKP PFL TQL HS [PATAD stapled peptide sequence A]
- circulating AST level [2]: effective in reducing
- FATP2 expression level in the adipose tissue [3]: decreased; also recorded: reduces
- circulating free albumin concentration [4]: decreased
- circulating GLP-1 concentration [5]: restored high circulating levels; also recorded: restore GLP1 circulating levels back to lean controls
- circulating ALT level [6]: effective in reducing
